The source of these data is patent US20240239775A1, “FXR REGULATOR, PREPARATION METHOD THEREFOR, PHARMACEUTICAL COMPOSITION THEREOF AND USE THEREOF” (QINGDAO RUIJI MEDICAL TECHNOLOGY CO., LTD., priority 2021, published 2024).

The assay addresses T1, FXR (Homo sapiens, UniProt Q96RI1).
T1 construct: 5 μL of 20 nM FXR-LBD Complete Coregulator buffer G; purchased ThermoFisher PV4833
T1 sequence (Q96RI1 262-486 limits assumed): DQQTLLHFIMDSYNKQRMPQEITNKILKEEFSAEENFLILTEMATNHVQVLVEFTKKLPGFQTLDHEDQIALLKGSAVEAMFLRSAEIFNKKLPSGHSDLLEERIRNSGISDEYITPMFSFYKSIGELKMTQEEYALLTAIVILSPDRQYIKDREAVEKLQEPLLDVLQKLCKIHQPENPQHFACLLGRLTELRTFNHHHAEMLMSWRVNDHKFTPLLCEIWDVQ
Put plainly: FXR antagonist screening by TR-FRET (LanthaScreen TR-FRET FXR co-activation assay kit). The settings on record: Table 1.2, FXR antagonistic activity; TR-FRET with CDCA; geometric means of at least two independent runs. It is filed as biochemical. The method, then: FXR activity was evaluated by time-resolved fluorescence resonance energy transfer (TR-FRET) assay, using LanthaScreen™ TR-FRET FXR co-activation assay kit (ThermoFisher, Cat. PV4833). For agonist screening, 10 μL of Complete Coregulator buffer G containing the corresponding concentration of the compound to be tested, 5 μL of 20 nM FXR-LBD Complete Coregulator buffer G, and 5 μL of 2.0 μM Fluorescein-SRC2-2/20 nM Tb-anti-GST antibody Complete Coregulator buffer G were added to each well of a 384-well black plate (Coring) in sequence. […] Three duplicate wells were set up for each compound, with CDCA as the positive compound and DMSO as the solvent control. For antagonist screening, 5 μL of Complete Coregulator buffer G containing the corresponding concentration of the compound to be tested, 5 μL of 20 nM FXR-LBD Complete Coregulator buffer G, 5 μL of 200 μM CDCA FXR-LBD Complete Coregulator buffer G, and 5 μL of 2.0 μM Fluorescein-SRC2-2/20 nM Tb-anti-GST antibody Complete Coregulator buffer G were added to each well of a 384-well black plate (Coring) in sequence and incubated at room temperature for 10 h. Following operations were the same as those for agonist screening
A general note: In TR-FRET formats the signal depends on donor and acceptor labels being close together.
By IC50 is commonly meant the concentration that inhibits the measured activity by half. The low end stands for higher potency, the high end for lower potency. Consider `Cc1c(C(=O)O)oc2ccc(S(=O)(=O)N(CCc3ccccc3)c3ccccc3N3CCN(C(=O)c4ccc(Br)s4)CC3)cc12` [Example F27-S123, 5-(N-(2-(4-(5-bromothiophene-2-carbonyl)piperazin-1-yl)phenyl)-N-phenethylsulfamoyl)-3-methyl benzofuran-2-carboxylic acid], for which the half-maximal inhibitory concentration (IC50) was 0.1 to 10 µM.

Turning to `Cc1c(C(=O)O)oc2ccc(S(=O)(=O)N(CCc3ccccc3)c3ccccc3N3CCN(C(=O)c4ccc[nH]4)CC3)cc12` [Example F27-S124, 5-(N-(2-(4-(1H-pyrrole-2-carbonyl)piperazin-1-yl)phenyl)-N-phenethylsulfamoyl)-3-methylbenzofuran-2-carboxylic acid], the IC50 was 0.1 to 10 µM.

Compound `Cc1c(C(=O)O)oc2ccc(S(=O)(=O)N(CCc3ccccc3)c3ccccc3N3CCN(C(=O)c4sccc4Br)CC3)cc12` [Example F27-S125, 5-(N-(2-(4-(3-bromothiophene-2-carbonyl)piperazin-1-yl)phenyl)-N-phenethylsulfamoyl)-3-methyl benzofuran-2-carboxylic acid] had an IC50 of 0.1 to 10 µM.

`Cc1c(C(=O)O)oc2ccc(S(=O)(=O)N(CCc3ccccc3)c3ccccc3N3CCN(C(=O)c4sccc4Cl)CC3)cc12` [Example F27-S126, 5-(N-(2-(4-(3-chlorothiophene-2-carbonyl)piperazin-1-yl)phenyl)-N-phenethylsulfamoyl)-3-methyl benzofuran-2-carboxylic acid] came in with a half-inhibitory concentration (IC50) of 0.1 to 10 µM.

As for `Cc1c(C(=O)O)oc2ccc(S(=O)(=O)N(CCc3ccccc3)c3ccccc3N3CCN(C(=O)c4cc(Br)cs4)CC3)cc12` [Example F27-S127, 5-(N-(2-(4-(4-bromothiophene-2-carbonyl)piperazin-1-yl)phenyl)-N-phenethylsulfamoyl)-3-methyl benzofuran-2-carboxylic acid], the IC50 was in the range of 0.1 to 10 µM.

As for `Cc1c(C(=O)O)oc2ccc(S(=O)(=O)N(CCc3ccccc3)c3ccccc3N3CCN(C(=O)c4ccc(Cl)s4)CC3)cc12` [Example F27-S128, 5-(N-(2-(4-(5-chlorothiophene-2-carbonyl)piperazin-1-yl)phenyl)-N-phenethylsulfamoyl)-3-methyl benzofuran-2-carboxylic acid], the half-maximal inhibitory concentration (IC50) fell in the range of 0.1 to 10 µM.

In turn, `Cc1c(C(=O)O)oc2ccc(S(=O)(=O)N(CCc3ccccc3)c3ccccc3N3CCN(C(=O)c4cncs4)CC3)cc12` [Example F27-S129, 3-methyl-5-(N-phenethyl-N-(2-(4-(thiazole-5-carbonyl)piperazin-1-yl)phenyl)sulfamoyl)benzofuran-2-carboxylic acid] yielded an IC50 of 0.1 to 10 µM.

In the case of `Cc1c(C(=O)O)oc2ccc(S(=O)(=O)N(CCc3ccccc3)c3ccccc3N3CCN(C(=O)c4cc[nH]n4)CC3)cc12` [Example F27-S130, 5-(N-(2-(4-(1H-pyrazole-3-carbonyl)piperazin-1-yl)phenyl)-N-phenethylsulfamoyl)-3-methylbenzo furan-2-carboxylic acid], the half-inhibitory concentration (IC50) is 0.1 to 10 µM.

Take `Cc1c(C(=O)O)oc2ccc(S(=O)(=O)N(CCc3ccccc3)c3ccccc3N3CCN(C(=O)c4cnco4)CC3)cc12` [Example F27-S131, 3-methyl-5-(N-(2-(4-(oxazole-5-carbonyl)piperazin-1-yl)phenyl)-N-phenethylsulfamoyl)benzofuran-2-carboxylic acid]: the IC50 lay in the range of 0.1 to 10 µM.

Compound `Cc1ccc(C(=O)N2CCN(c3ccccc3N(CCc3ccccc3)S(=O)(=O)c3ccc4oc(C(=O)O)c(C)c4c3)CC2)cc1C` [Example F27-S132, 5-(N-(2-(4-(3,4-dimethylbenzoyl)piperazin-1-yl)phenyl)-N-phenethylsulfamoyl)3-methylbenzofuran-2-carboxylic acid] came in with an IC50 of 0.1 to 10 µM.

`COc1cccc(OC)c1C(=O)N1CCN(c2ccccc2N(CCc2ccccc2)S(=O)(=O)c2ccc3oc(C(=O)O)c(C)c3c2)CC1` [Example F27-S133, 5-(N-(2-(4-(2,6-dimethoxybenzoyl)piperazin-1-yl)phenyl)-N-phenethylsulfamoyl)3-methylbenzofuran-2-carboxylic acid] registered an IC50 of 0.1 to 10 µM.

`Cc1c(C(=O)O)oc2ccc(S(=O)(=O)N(CCc3ccccc3)c3ccccc3N3CCN(C(=O)c4ccccc4Cc4ccccc4)CC3)cc12` [Example F27-S134, 5-(N-(2-(4-(2-benzylbenzoyl)piperazin-1-yl)phenyl)-N-phenethylsulfamoyl)3-methylbenzofuran-2-carboxylic acid] displayed a 50% inhibitory concentration (IC50) of 0.1 to 10 µM.

The compound `Cc1cc(C)c(C(=O)N2CCN(c3ccccc3N(CCc3ccccc3)S(=O)(=O)c3ccc4oc(C(=O)O)c(C)c4c3)CC2)c(C)c1` [Example F27-S135, 5-(N-(2-(4-(2,4,6-trimethylbenzoyl)piperazin-1-yl)phenyl)-N-phenethylsulfamoyl)3-methylbenzofuran-2-carboxylic acid] yielded an IC50 of 0.1 to 10 µM.

`COc1ccccc1C(=O)N1CCN(c2ccccc2N(CCc2ccccc2)S(=O)(=O)c2ccc3oc(C(=O)O)c(C)c3c2)CC1` [Example F27-S136, 5-(N-(2-(4-(2-methoxybenzoyl)piperazin-1-yl)phenyl)-N-phenethylsulfamoyl)3-methylbenzofuran-2-carboxylic acid] registered a half-inhibitory concentration (IC50) of 0.1 to 10 µM.

Regarding `Cc1ccc(C)c(C(=O)N2CCN(c3ccccc3N(CCc3ccccc3)S(=O)(=O)c3ccc4oc(C(=O)O)c(C)c4c3)CC2)c1` [Example F27-S137, 5-(N-(2-(4-(2,5-Dimethylbenzoyl)piperazin-1-yl)phenyl)-N-phenethylsulfamoyl)3-methylbenzofuran-2-carboxylic acid], the IC50 fell in the range of 0.1 to 10 µM.

For `Cc1c(C(=O)O)oc2ccc(S(=O)(=O)N(CCc3ccccc3)c3ccccc3N3CCN(C(=O)c4ccc(C#Cc5ccccc5)cc4)CC3)cc12` [Example F27-S138, 5-(N-(2-(4-(4-(phenylethynyl)benzoyl)piperazin-1-yl)phenyl)-N-phenethylsulfamoyl)3-methylbenzofuran-2-carboxylic acid], the IC50 was 0.1 to 10 µM.

In turn, `Cc1ccc(C(=O)N2CCN(c3ccccc3N(CCc3ccccc3)S(=O)(=O)c3ccc4oc(C(=O)O)c(C)c4c3)CC2)s1` [Example F27-S139, 5-(N-(2-(4-(5-methylthiophene-2-formyl)piperazin-1-yl)phenyl)-N-phenethylsulfamoyl)3-methylbenzofuran-2-carboxylic acid] showed an IC50 of 0.1 to 10 µM.

`Cc1csc(C(=O)N2CCN(c3ccccc3N(CCc3ccccc3)S(=O)(=O)c3ccc4oc(C(=O)O)c(C)c4c3)CC2)c1` [Example F27-S140, 5-(N-(2-(4-(4-methylthiophene-2-formyl)piperazin-1-yl)phenyl)-N-phenethylsulfamoyl)3-methylbenzofuran-2-carboxylic acid] showed a half-inhibitory concentration (IC50) of 0.1 to 10 µM.

As for `Cc1ccsc1C(=O)N1CCN(c2ccccc2N(CCc2ccccc2)S(=O)(=O)c2ccc3oc(C(=O)O)c(C)c3c2)CC1` [Example F27-S141, 5-(N-(2-(4-(3-methylthiophene-2-formyl)piperazin-1-yl)phenyl)-N-phenethylsulfamoyl)3-methylbenzofuran-2-carboxylic acid], the 50% inhibitory concentration (IC50) lay in the range of 0.1 to 10 µM.

Regarding `Cc1c(C(=O)O)oc2ccc(S(=O)(=O)N(CCc3ccccc3)c3ccccc3N3CCN(C(=O)c4ncc[nH]4)CC3)cc12` [Example F27-S142, 5-(N-(2-(4-(1H-imidazole-2-formyl)piperazin-1-yl)phenyl)-N-phenethylsulfamoyl)3-methylbenzofuran-2-carboxylic acid], the half-maximal inhibitory concentration (IC50) is 0.1 to 10 µM.

`Cc1c(C(=O)O)oc2ccc(S(=O)(=O)N(CCc3ccccc3)c3ccccc3N3CCN(C(=O)C4CCCS4)CC3)cc12` (stereo not drawn) [Example F27-S143, 5-(N-(2-(4-(tetrahydrothiophene-2-formyl)piperazin-1-yl)phenyl)-N-phenethylsulfamoyl)3-methyl benzofuran-2-carboxylic acid] had an IC50 of 0.1 to 10 µM.

Compound `Cc1c(C(=O)O)oc2ccc(S(=O)(=O)N(CCc3ccccc3)c3ccccc3N3CCN(C(=O)c4c[nH]cn4)CC3)cc12` [Example F27-S144, 5-(N-(2-(4-(1H-imidazole-4-formyl)piperazin-1-yl)phenyl)-N-phenethylsulfamoyl)3-methylbenzofuran-2-carboxylic acid] yielded a concentration for half-maximal inhibition (IC50) of 0.1 to 10 µM.

Compound `CCC(CC)C(=O)N1CCN(c2ccccc2N(CCc2ccccc2)S(=O)(=O)c2ccc3oc(C(=O)O)c(C)c3c2)CC1` [Example F27-S145, 5-(N-(2-(4-(2-ethylbutyryl)piperazin-1-yl)phenyl)-N-phenethylsulfamoyl)3-methylbenzofuran-2-carboxylic acid] had an IC50 of 0.1 to 10 µM.

In turn, `Cc1c(C(=O)O)oc2ccc(S(=O)(=O)N(CCc3ccccc3)c3ccccc3N3CCN(C(=O)c4ccno4)CC3)cc12` [Example F27-S146, 5-(N-(2-(4-(isoxazole-5-carbonyl)piperazin-1-yl)phenyl)-N-phenethylsulfamoyl)3-methylbenzofuran-2-carboxylic acid] had an IC50 of 0.1 to 10 µM.
